# Data from ChEMBL document CHEMBL4840343, “Fragment-based lead discovery of indazole-based compounds as AXL kinase inhibitors” (Bioorg Med Chem, 2021).
# Active and inactive are the calls of the source. The calls are words filed in the database; no cut-off is given here.
# Columns and labels:
# [1] = molecular target: T1, Tyrosine-protein kinase receptor UFO (Homo sapiens, UniProt P30530); assay: Inhibition of Axl (unknown origin) using 5'FAM labeled KKKKEEIYFFF-NH2 peptide as substrate incubated for 1.5 hrs
# T1 sequence (P30530 whole entry): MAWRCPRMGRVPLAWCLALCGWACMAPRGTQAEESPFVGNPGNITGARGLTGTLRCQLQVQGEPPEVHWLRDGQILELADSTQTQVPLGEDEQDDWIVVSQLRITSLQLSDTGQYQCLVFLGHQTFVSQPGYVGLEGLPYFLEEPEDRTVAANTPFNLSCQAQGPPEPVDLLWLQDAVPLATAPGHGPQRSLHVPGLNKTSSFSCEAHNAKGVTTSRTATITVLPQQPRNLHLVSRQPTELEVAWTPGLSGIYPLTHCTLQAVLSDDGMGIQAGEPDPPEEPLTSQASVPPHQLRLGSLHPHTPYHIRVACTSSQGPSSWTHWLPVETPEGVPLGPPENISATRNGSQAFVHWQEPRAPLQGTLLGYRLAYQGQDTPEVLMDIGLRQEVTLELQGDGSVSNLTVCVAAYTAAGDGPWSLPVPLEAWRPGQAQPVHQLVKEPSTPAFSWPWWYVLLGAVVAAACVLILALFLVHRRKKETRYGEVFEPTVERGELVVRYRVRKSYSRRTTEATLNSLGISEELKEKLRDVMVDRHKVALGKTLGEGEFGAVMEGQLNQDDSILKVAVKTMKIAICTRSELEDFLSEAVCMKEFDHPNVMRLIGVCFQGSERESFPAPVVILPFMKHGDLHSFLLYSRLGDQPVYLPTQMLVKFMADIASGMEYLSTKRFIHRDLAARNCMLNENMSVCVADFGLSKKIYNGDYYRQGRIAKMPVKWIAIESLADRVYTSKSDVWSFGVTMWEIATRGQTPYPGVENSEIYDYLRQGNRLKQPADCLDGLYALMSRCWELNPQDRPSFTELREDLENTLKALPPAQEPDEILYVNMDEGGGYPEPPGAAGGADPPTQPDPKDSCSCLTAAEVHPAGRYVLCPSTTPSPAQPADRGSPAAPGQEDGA
# [2] = molecular target: T1, Tyrosine-protein kinase receptor UFO; assay: Displacement of K5 tracer from Axl (unknown origin) expressed in human HEK293 cells cotransfected with NanoLuc measured after 2 hrs by NanoBRET assay; format: cell-based
# SK-OV-3 = assay: Antiproliferative activity against human SK-OV-3 cells as reduction in cell growth measured after 72 hrs by Celltiter-Glo luminescent assay; format: functional
# [3] = Cmax in mouse at 5 mg/kg, po; format: ADME, organism-based; parameters: route oral, dose 5 mg/kg; conditions: in vivo
# [4] = Tmax in mouse at 5 mg/kg, po; format: ADME, organism-based; conditions: in vivo
# [5] = Efflux ratio of permeability in human Caco-2 cells; format: ADME, cell-based
# [6] = Thermodynamic solubility of compound at pH 7.4; format: physicochemical; conditions: buffer, read-out: Therm_solubility
# [7] = Intrinsic clearance in mouse liver microsomes; format: ADME, Microsome; conditions: read-out: CLH
# [8] = AUC (0 to infinity) in mouse at 5 mg/kg, po; format: ADME, organism-based; parameters: route oral, time infinity, dose 5 mg/kg; conditions: in vivo
# [9] = Intrinsic clearance in human liver microsomes; format: ADME, Microsome; conditions: read-out: CLH
# [10] = Distribution coefficient, logD of compound at pH 7.4; format: physicochemical; conditions: octanol/water
# [11] = Permeability across apical to basolateral side in human Caco-2 cells; format: ADME, cell-based; conditions: read-out: permeability
# [12] = Half life in mouse at 5 mg/kg, po; format: ADME, organism-based; conditions: in vivo
# [13] = Permeability across basolateral to apical side in human Caco-2 cells; format: ADME, cell-based; conditions: read-out: permeability
# [14] = molecular target: Tyrosine-protein kinase receptor UFO (Homo sapiens) (UniProt P30530); assay: Inhibition of Axl in human SK-OV-3 cells assessed as reduction in phosphorylated ERK1/2 level at 1 to 10 uM measured after 1 hr by Western blot analysis; format: cell-based; conditions: dose 1-10 µM
# [15] = molecular target: Tyrosine-protein kinase receptor UFO (Homo sapiens) (UniProt P30530); assay: Inhibition of Axl in human SK-OV-3 cells assessed as reduction in phosphorylated Axl level measured after 1 hr by Western blot analysis; format: cell-based; conditions: dose 1-10 µM
structure (smiles),measurement,setting,value
N#Cc1ccccc1-n1cc(-c2n[nH]c3cc(Cl)c(N[C@@H]4CCNC4)cc23)cn1,IC50,[1],3.2 µM
same,IC50,[2],3.54 µM
same,GI50,SK-OV-3,2.78 µM
CSc1cc(-c2ccc(F)cc2)n[nH]1,IC50,[1],331 µM
Clc1ncnc2ccsc12,IC50,[1],302 µM
Nc1ccc2c(-c3cccnc3)n[nH]c2c1,IC50,[1],28.4 µM
CN1CCC(CNc2ccc3[nH]nc(-c4cnn(C)c4)c3c2)CC1,IC50,[1],1850 µM
Cn1cc(-c2nn(C)c3cc(N)ccc23)cn1,IC50,[1],> 384 µM
Nc1ccc(Br)c2ccncc12,IC50,[1],57 µM
Cn1cc(-c2n[nH]c3cc(Nc4ccccc4)ccc23)cn1,IC50,[1],219 µM
Clc1cc2[nH]nc(-c3cnn(-c4ccccc4)c3)c2cc1N[C@@H]1CCNC1,IC50,[1],1.7 µM
same,IC50,[2],0.668 µM
c1cnc2[nH]ccc2c1,IC50,[1],391 µM
O=C(O)c1ccc2cn[nH]c2c1,IC50,[1],> 770 µM
Cc1cnc2[nH]ccc2c1Cl,IC50,[1],20.2 µM
Fc1ccc(-n2cc(-c3n[nH]c4cc(Cl)c(N[C@@H]5CCNC5)cc34)cn2)cc1,IC50,[1],2.3 µM
same,IC50,[2],0.684 µM
Cn1cc(-c2n[nH]c3ccc(N[C@@H]4CCNC4)cc23)cn1,IC50,[1],37 µM
same,IC50,[2],20.7 µM
CC(C)Nc1ccc2c(-c3cnn(C)c3)n[nH]c2c1,IC50,[1],46.6 µM
FC(F)(F)n1cc(-c2n[nH]c3cc(Cl)c(N[C@@H]4CCN(C5COC5)C4)cc23)cn1,Cmax,[3],258 ng/mL
same,Tmax,[4],0.17 h
same,efflux ratio,[5],0.82
same,IC50,[1],466 µM
same,solubility thermodynamic,[6],4.58 µg/mL
same,microsomal CLint,[7],43.9 µL/min/mg
same,IC50,[2],26.3 µM
same,AUC(0-inf),[8],573 ng·h/mL
same,microsomal CLint,[9],15.4 µL/min/mg
same,logD,[10],3.66
same,Papp A→B,[11],21.1 ×10⁻⁶ cm/s
same,half-life,[12],2.6 h
same,Papp B→A,[13],17.4 ×10⁻⁶ cm/s
Cn1cc(-c2n[nH]c3cc(Cl)c(N[C@@H]4CCN(C5COC5)C4)cc23)cn1,Cmax,[3],126 ng/mL
same,Tmax,[4],0.17 h
same,efflux ratio,[5],2.31
same,IC50,[1],320 µM
same,solubility thermodynamic,[6],245 µg/mL
same,microsomal CLint,[7],15.2 µL/min/mg
same,IC50,[2],24.7 µM
same,AUC(0-inf),[8],396 ng·h/mL
same,microsomal CLint,[9],6.9 µL/min/mg
same,logD,[10],2.31
same,Papp A→B,[11],13.7 ×10⁻⁶ cm/s
same,half-life,[12],2 h
same,Papp B→A,[13],31.6 ×10⁻⁶ cm/s
COc1ccc2[nH]c(C)cc2c1,IC50,[1],38 µM
CN1CCC(Nc2ccc3[nH]nc(-c4cnn(C)c4)c3c2)CC1,IC50,[1],207 µM
Cn1cc(-c2n[nH]c3cc(N)ccc23)cn1,IC50,[1],28.8 µM
Brc1cccc2[nH]ncc12,IC50,[1],178 µM
COc1cc2[nH]ncc2cc1Br,IC50,[1],227 µM
Cn1cc(-c2n[nH]c3ccc(N[C@H]4CCNC4)cc23)cn1,IC50,[1],239 µM
same,IC50,[2],> 50 µM
Cn1cc(-c2n[nH]c3ccc(NC4CCNC4)cc23)cn1 (stereo not given),IC50,[1],132 µM
N#Cc1cccc(-n2cc(-c3n[nH]c4cc(Cl)c(N[C@@H]5CCNC5)cc34)cn2)c1,IC50,[1],2.3 µM
same,IC50,[2],2.02 µM
same,GI50,SK-OV-3,0.496 µM
COc1ccc(-n2cc(-c3n[nH]c4cc(Cl)c(N[C@@H]5CCNC5)cc34)cn2)cc1,IC50,[1],0.3 µM
same,inhibition,[14],Active
same,IC50,[2],0.374 µM
same,GI50,SK-OV-3,0.718 µM
same,inhibition,[15],Dose-Dependent Effect
FC(F)(F)c1cccc2[nH]ncc12,IC50,[1],184 µM
Cn1cc(-c2n[nH]c3cc(-c4ccccc4)ccc23)cn1,IC50,[1],12.3 µM
O=C(O)c1ccc2c(Br)n[nH]c2c1,IC50,[1],> 770 µM
Nc1ccc2c(Br)n[nH]c2c1,IC50,[1],> 770 µM
Brc1cnn2cccnc12,IC50,[1],330 µM
Nc1cccc(-c2cccnc2)c1,IC50,[1],363 µM
O=C1CC(c2ccccc2)=NN1,IC50,[1],13 µM
Cn1cc(-c2n[nH]c3ccc(Nc4ccccc4)cc23)cn1,IC50,[1],0.58 µM
Cn1cc(-c2n[nH]c3cc(Cl)c(N[C@@H]4CCNC4)cc23)cn1,efflux ratio,[5],22.6
same,IC50,[1],19 µM
same,inhibition,[14],Active
same,solubility thermodynamic,[6],297 µg/mL
same,microsomal CLint,[7],9.38 µL/min/mg
same,IC50,[2],3.13 µM
same,microsomal CLint,[9],< 12 µL/min/mg
same,logD,[10],0.32
same,GI50,SK-OV-3,8.62 µM
same,Papp A→B,[11],0.39 ×10⁻⁶ cm/s
same,Papp B→A,[13],8.71 ×10⁻⁶ cm/s
same,inhibition,[15],Dose-Dependent Effect
COc1ccc(-n2cc(-c3n[nH]c4cc(Cl)c(N[C@H]5CNCC56CC6)cc34)cn2)cc1,Cmax,[3],53 ng/mL
same,Tmax,[4],0.25 h
same,efflux ratio,[5],1.3
same,IC50,[1],1 µM
same,solubility thermodynamic,[6],5.55 µg/mL
same,microsomal CLint,[7],5.14 µL/min/mg
same,IC50,[2],0.883 µM
same,AUC(0-inf),[8],129 ng·h/mL
same,microsomal CLint,[9],83 µL/min/mg
same,logD,[10],> 5
same,GI50,SK-OV-3,0.0285 µM
same,Papp A→B,[11],4.05 ×10⁻⁶ cm/s
same,half-life,[12],2.16 h
same,Papp B→A,[13],5.24 ×10⁻⁶ cm/s
CN1CC[C@@H](Nc2cc3c(-c4cnn(C)c4)n[nH]c3cc2Cl)C1,IC50,[1],74 µM
same,IC50,[2],8.96 µM
Cn1cc(-c2n[nH]c3ccc(Br)cc23)cn1,IC50,[1],1.54 µM
Cn1cc(-c2n[nH]c3ccc(N)cc23)cn1,IC50,[1],8.91 µM
Cn1cc(-c2n[nH]c3cc(Br)ccc23)cn1,IC50,[1],0.95 µM
FCCn1cc(-c2n[nH]c3cc(Cl)c(N[C@@H]4CCNC4)cc23)cn1,IC50,[1],5 µM
same,IC50,[2],3.46 µM
Cc1ccc(C)n1-c1ccsc1C(=O)O,IC50,[1],70 µM
Brc1c[nH]c2ncccc12,IC50,[1],22.8 µM
Nc1cccc2[nH]nc(Br)c12,IC50,[1],486 µM
Clc1ccnc2[nH]ccc12,IC50,[1],113 µM
N#Cc1ccc(-n2cc(-c3n[nH]c4cc(Cl)c(N[C@@H]5CCNC5)cc34)cn2)cc1,IC50,[1],0.7 µM
same,IC50,[2],0.88 µM
same,GI50,SK-OV-3,0.0529 µM
CNC1CCN(c2ccc3[nH]nc(-c4cnn(C)c4)c3c2)C1 (stereo not given),IC50,[1],432 µM
Nc1ccc2[nH]nc(Br)c2c1,IC50,[1],> 770 µM
c1cncc(-c2csc(-c3cccnc3)n2)c1,IC50,[1],305 µM
Cn1cc(-c2n[nH]c3cc(Cl)c(Br)cc23)cn1,IC50,[1],0.85 µM
Cn1cc(-c2n[nH]c3ccc(-c4ccccc4)cc23)cn1,IC50,[1],0.62 µM
